The values that follow come from patent US20250009627A1, “THERAPEUTIC AND NON-THERAPEUTIC USES OF A PERSONAL CLEANSING COMPOSITION AND METHODS OF TREATMENT” (The Procter & Gamble Company, priority 2023, published 2025).

Assay [1] relates to Escherichia coli ATCC25922. The assay can be described thus: In vitro Minimum Inhibitory Concentration (MIC) testing. To be noted: Escherichia coli ATCC25922; pH of the assay 7.2; read-out: Minimum Inhibition Concentration MIC. The format is cell-based. How it is done:
(§1) The in vitro Minimum Inhibitory Concentration (MIC) Assay is a technique for determining the lowest concentration of a particular compound needed to prevent growth of microorganism. Different microorganisms were used to evaluate bacterial inhibition benefits for sulfate surfactants (Table 1) [table] Microorganisms are cultured and maintained in different culture medium. Each respective microorganism stock solution is diluted to 10^5 to 10^6 CFU/mL in a respective growth medium. 180 μl broth with the respective target microorganism is allocated into 96 well plates. Sodium oleyl sulfate prepared from two different synthesis batches (Ex. 1A and Ex. 1B), sodium octyl sulfate, sodium decyl sulfate, sodium lauryl sulfate were mixed respectively with in Deionized (DI) water. Octadecyl sulfate sodium was mixed in Dimethyl sulfoxide (DMSO). Two folds serial dilution are applied to each respective active by mixing 100 μl active stock solution (from 1 wt. %) plus 100 μl sterilized DI water or DMSO in 96 well plates (Nunc™ MicroWell™ 96-Well, CAT. No. 167008). For each assay, 0.001-1 wt. % treatment solutions are prepared for each individual active. Micropipettes are used to transfer 20 μl of actives at different concentration into each well with 180 μl broth with the respective target microorganisms. The 96 well plates with test microorganisms and test actives are incubated at 37° C. • a) E. coli are incubated for overnight 16 hours to 24 hour. • b) Corynebacterium minutissimum is incubated for two days. • c) Cutibacterium acnes is incubated for two days under anaerobic conditions. After incubation, microorganism growth is determined in presence of test actives by visual inspection or spectrophotometer by OD600 (absorbance at 600 nm using Tecan M200 Infinite Pro Microplate Reader) reading in comparison with positive control (broth with individual microorganism) and negative control (Broth only). MIC values are presented as parts per million (ppm) for different actives.

In assay [2] the test system is Staphylococcus aureus ATCC6538. The assay is described as above. The format is cell-based. The conditions noted are these: for MIC: read-out: Minimum Inhibition Concentration MIC. The procedure:
as §1

In assay [3] the test system is Corynebacterium minutissimum ATCC 23348. The description is as above. The format is cell-based. The conditions noted are these: Corynebacterium minutissimum ATCC 23348; for MIC: ATCC23348, read-out: Minimum Inhibition Concentration MIC. How it is done: as §1, with “plates. For instance, Corynebacterium minutissimum ATCC 23348 is cultured on tryptic soy agar (TSA) (Oxoid CM0131) over 24 hours. The single colonies are then transferred into 20 mL Tryptone Soy Broth (Oxoid CM0129B—TSB) and cultured overnight at 200 rpm/min, 37° C. Bacterial cell in broth will be diluted to 10^5 to 10^6 CFU/mL in TSB. 180 μL of this bacterium-MHB mix is added to a 96 well flat-bottomed plate (Nunc™ MicroWell™ 96-Well, CAT. No. 167008).” for “plates.”

The test system of another assay is Cutibacterium acne SK137. The description is as above. The format is cell-based, Cutibacterium acnes. To be noted: for MIC: Cutibacterium, SK137, Cutibacterium acne SK137, anaerobic, read-out: Minimum Inhibition Concentration MIC. How it is done: as §1
Assay [4] has as its system Cutibacterium acne 2044 NIA (skin isolate). Described as above. The format is cell-based, Cutibacterium acnes. To be noted: for MIC: read-out: Minimum Inhibition Concentration MIC. How it is done:
The in vitro Minimum Inhibitory Concentration (MIC) Assay is a technique for determining the lowest concentration of a particular compound needed to prevent growth of microorganism. Different microorganisms were used to evaluate bacterial inhibition benefits for sulfate surfactants (Table 1)
Microorganisms are cultured and maintained in different culture medium. Each respective microorganism stock solution is diluted to 10^5 to 10^6 CFU/mL in a respective growth medium. 180 μl broth with the respective target microorganism is allocated into 96 well plates.
Sodium oleyl sulfate prepared from two different synthesis batches (Ex. 1A and Ex. 1B), sodium octyl sulfate, sodium decyl sulfate, sodium lauryl sulfate were mixed respectively with in Deionized (DI) water. Octadecyl sulfate sodium was mixed in Dimethyl sulfoxide (DMSO).
Two folds serial dilution are applied to each respective active by mixing 100 μl active stock solution (from 1 wt. %) plus 100 μl sterilized DI water or DMSO in 96 well plates (Nunc™ MicroWell™ 96-Well, CAT. No. 167008). For each assay, 0.001-1 wt. % treatment solutions are prepared for each individual active.
Micropipettes are used to transfer 20 μl of actives at different concentration into each well with 180 μl broth with the respective target microorganisms.
The 96 well plates with test microorganisms and test actives are incubated at 37° C. • a) E. coli are incubated for overnight 16 hours to 24 hour. • b) Corynebacterium minutissimum is incubated for two days. • c) Cutibacterium acnes is incubated for two days under anaerobic conditions.
After incubation, microorganism growth is determined in presence of test actives by visual inspection or spectrophotometer by OD600 (absorbance at 600 nm using Tecan M200 Infinite Pro Microplate Reader) reading in comparison with positive control (broth with individual microorganism) and negative control (Broth only). MIC values are presented as parts per million (ppm) for different actives.
C. acne SK137 and C. acne 2044NIA (P&G skin isolate) are from Type IA-2 Clade by whole genome sequencing, which is reported to be associated with skin acne conditions.

In another assay the test system is E. coli ATCC25922. Kind of assay: Kill Rate Test in liquid (suspension time-kill testing). The format is cell-based, Escherichia coli. The text has this:
The suspension time-kill test is a method to directly inoculate a liquid test substance with a high concentration of test microorganisms and then determine the percentage of killed over time, normally represented as log CFU reduction. The objective is to measure the biocidal potential of a liquid antimicrobial active or formulation.
E. coli ATCC25922 is streaked on Tryptic Soy Agar (TSA) Plates and cultured overnight. Pick up one colony of E. coli ATCC25922 and subculture bacterial cell in Tryptic Soy Broth (TSB) @ 200 rpm/min, 37° C. for 12-16 hours. After culturing, 1 mL bacterial cells in broth are pipetted into 2 mL tubes. Samples are centrifuged for 2 mins at 13000 rpm/min. Cell supernatant are discarded, and bacterial cells are resuspended in 1 mL Saline @ 10^8 to 10^9 CFU/mL. 1 mL liquid antimicrobial active to be tested under different concentrations is prepared: 20 mM acetate buffers are used to maintain the test solutions at a pH between 4.0 and 5.7. 10 mM phosphate buffer is used to maintain the test solution at a pH around 7.2. 20 mM Tris-HCl buffers are used to maintain the test solutions at a pH between 8.0 and 9.0. 1 mL saline (NaCl 0.9 wt. %) is used to as negative control in the study. 50 μl of 10^8 to 10^9 CFU/mL bacterial cells are added into each treatment and saline control. Samples were thoroughly mixed by vertexing 5 seconds. After incubating 30 minutes, 50 μl liquid from each treatment sample and saline control are pipetted out into for Total Viable Count Vial (NEOGEN). All measurements are done in duplicates. The Detection Time (DT) for Total Viable Count Vial is measured by Soleris® Next Generation (NEOGEN) system. DT values are averaged for each treatment and control for further calculation. DT time for each sample is converted to Log (viable cell number) by using algorithm generated for E. coli ATCC25922:
Biocidal potential of different actives at different concentrations and at different pHs in a liquid solution is measured by: […]

In the case of `CCCCCCCC/C=C\CCCCCCCCOS(=O)(=O)[O-].[Na+]` [Ex. 1A, sodium oleyl sulfate], the MIC in assay [1] is > 1000 µg/mL; in assay [2] (Staphylococcus aureus ATCC6538), 3.9 µg/mL; in assay [3], 3.9 µg/mL; in the assay with Cutibacterium acne SK137 it was 3.9 µg/mL; in assay [4], 7.8 µg/mL.
With `CCCCCCCCCCOS(=O)(=O)[O-].[Na+]` [sodium decyl sulfate], the MIC was > 1000 µg/mL in assay [1]; > 1000 µg/mL in assay [2] (Staphylococcus aureus ATCC6538); > 500 µg/mL in assay [3]; > 500 µg/mL with Cutibacterium acne SK137; > 500 µg/mL in assay [4]. For the same molecule, the “inhibition of S. aureus (in words)” value in assay [2] is “No inhibition”.
Turning to `CCCCCCCCOS(=O)(=O)[O-].[Na+]` [sodium octyl sulfate], the MIC in assay [1] is > 1000 µg/mL; in assay [2] (Staphylococcus aureus ATCC6538), > 1000 µg/mL; in assay [3], > 500 µg/mL; with Cutibacterium acne SK137, > 500 µg/mL; in assay [4], > 500 µg/mL. The “inhibition of S. aureus (in words)” value in assay [2] is “No inhibition”.
Regarding `CCCCCCCCCCCCCCCCCCOS(=O)(=O)[O-].[Na+]` [octadecyl sulfate sodium salt], the MIC in assay [1] was > 1000 µg/mL; in assay [2] (Staphylococcus aureus ATCC6538), > 500 µg/mL; in assay [3] it was > 500 µg/mL; with Cutibacterium acne SK137 it was > 500 µg/mL; in assay [4], > 500 µg/mL. Moreover, in assay [2], the “inhibition of S. aureus (in words)” value is listed as “ineffective”. For the same molecule, the “bacterial inhibition of Cutibacterium acne (in words)” value in the assay on Cutibacterium acne SK137 (two strains (SK137, 2044 NIA)) is recorded as “no effect”.
Regarding `CCCCCCCC/C=C\CCCCCCCCOS(=O)(=O)[O-].[Na+]` [Ex. 1B, sodium oleyl sulfate], the “Minimum Inhibition Concentration MIC” value in assay [2] (Staphylococcus aureus ATCC6538) worked out at 3.9 ppm; in assay [3], 3.9 ppm; in the assay on Cutibacterium acne SK137 (Cutibacterium acne SK137, anaerobic, sulfate) it was 7.8 ppm; in assay [4], 7.8 ppm. Also, the “bactericidal activity against E. coli ATCC25922 (log CFU reduction)” value in the assay on E. coli ATCC25922 (12.5 ppm, test pH 4, 30 minutes) is 4.3; with E. coli ATCC25922 (12.5 ppm, test pH 5.1, 30 minutes), 0; in the assay on E. coli ATCC25922 (50 ppm, test pH 4, 30 minutes), 6.6; in the assay on E. coli ATCC25922 (50 ppm, test pH 5.1, 30 minutes), <0.3; with E. coli ATCC25922 (200 ppm, test pH 4, 30 minutes), 6.6; in the assay with E. coli ATCC25922 (200 ppm, test pH 5.1, 30 minutes), <0.3.
For the molecule `CCCCCCCCCCCCOS(=O)(=O)[O-].[Na+]` [sodium lauryl sulfate], the MIC in assay [1] was > 1000 µg/mL; in assay [2] (Staphylococcus aureus ATCC6538), 125 µg/mL; in assay [3], 125 µg/mL; in the assay with Cutibacterium acne SK137, 31.2 µg/mL; in assay [4], 62.5 µg/mL. Moreover, in assay [2], the “inhibition of S. aureus (in words)” value is “less potent than sodium oleyl sulfate”.
